# Laboratory results reported in patent publication US4760147A, “Optically active, substituted 1,4-dihydropyridines and their use as medicaments” (Cassella Aktiengesellschaft, priority 1984, dated 1988).
# Test system: spiral strips of the arteria pulmonalis of guineapigs
# Experiment: calcium-antagonistic action: relaxing effect on potassium-depolarised, CaCl2-contracted spiral strips of the arteria pulmonalis (modified method of Godfraind and Kaba and of Schumann et al)
# Assay type: cell-based
# Conditions: depolarised with 40 mmol potassium; contraction triggered by 0.5 mmol CaCl2; mean value of 4 to 6 vascular strips; read-out: IC50 (concentration which inhibits the contraction by 50%)
# Experimental: In these experiments, spiral strips of the arteria pulmonalis of guineapigs are depolarised with 40 mmol of potassium, after equilibration in calcium-freeTyrode's solution. The addition of 0.5 mmol of CaCl2 then triggers off contraction. The relaxing effect of the test substance is determined by cumulative addition in 1/2 log 10 graduated concentrations. The concentration of the test substance which inhibits the contraction by 50% (=IC50, mole/l) is determined from the concentration/effect curve (abscissa: -log mole/l of test substance, ordinate: % inhibition of the maximum contraction, mean value of 4 to 6 vascular strips).
row,IC50,Structure (SMILES)
1,0.04 nM,"CC1=C(C(=O)OC(C)C)C(c2cccc(Cl)c2Cl)C(c2nnco2)=C(C)N1 (single isomer, unassigned) [Example 1e, Isopropyl (-)-1,4-dihydro-2,6-dimethyl-3-(1,3,4-oxadiazol-2-yl)-4-(2,3-dichlorophenyl)-pyridine-5-carboxylate]"
2,0.2 nM,"COC(=O)C1=C(C)NC(C)=C(c2nnco2)C1c1cccc(Cl)c1Cl (single isomer, unassigned) [Example 2, Methyl (-)-1,4-dihydro-2,6-dimethyl-3-(1,3,4-oxadiazol-2-yl)-4-(2,3-dichlorophenyl)-pyridine-5-carboxylate]"
3,0.07 nM,"CCOC(=O)C1=C(C)NC(C)=C(c2nnco2)C1c1cccc(Cl)c1Cl (single isomer, unassigned) [Example 3, Ethyl (-)-1,4-dihydro-2,6-dimethyl-3-(1,3,4-oxadiazol-2-yl)-4-(2,3-dichlorophenyl)-pyridine-5-carboxylate]"
4,0.3 nM,"COCCOC(=O)C1=C(C)NC(C)=C(c2nnco2)C1c1cccc(Cl)c1Cl (single isomer, unassigned) [Example 4, Methoxyethyl (-)-1,4-dihydro-2,6-dimethyl-3-(1,3,4-oxadiazol-2-yl)-4-(2,3-dichlorophenyl)-pyridine-5-carboxylate]"
5,0.04 nM,"CCOC(=O)[C@@H](C)OC(=O)C1=C(C)NC(C)=C(c2nnco2)C1c1cccc(Cl)c1Cl (single isomer, unassigned) [Example 8c]"
6,0.1 nM,"CC1=C(C(=O)OCCOC(C)C)C(c2cccc(Cl)c2Cl)C(c2nnco2)=C(C)N1 (single isomer, unassigned) [Example 16, 2-isopropoxy-ethyl (-)-1,4-dihydro-2,6-dimethyl-3-(1,3,4-oxadiazol-2-yl)-4-(2,3-dichlorophenyl)-pyridine-5-carboxylate]"
